Tests used:
Rattus norvegicus = assay: Antiinflammatory activity against po dosed carrageenan-induced rat foot paw edema after 3 hrs; format: functional
[1] = target: T1, Prostaglandin G/H synthase 1 (Ovis aries, UniProt P05979)
T1 sequence (P05979 whole entry): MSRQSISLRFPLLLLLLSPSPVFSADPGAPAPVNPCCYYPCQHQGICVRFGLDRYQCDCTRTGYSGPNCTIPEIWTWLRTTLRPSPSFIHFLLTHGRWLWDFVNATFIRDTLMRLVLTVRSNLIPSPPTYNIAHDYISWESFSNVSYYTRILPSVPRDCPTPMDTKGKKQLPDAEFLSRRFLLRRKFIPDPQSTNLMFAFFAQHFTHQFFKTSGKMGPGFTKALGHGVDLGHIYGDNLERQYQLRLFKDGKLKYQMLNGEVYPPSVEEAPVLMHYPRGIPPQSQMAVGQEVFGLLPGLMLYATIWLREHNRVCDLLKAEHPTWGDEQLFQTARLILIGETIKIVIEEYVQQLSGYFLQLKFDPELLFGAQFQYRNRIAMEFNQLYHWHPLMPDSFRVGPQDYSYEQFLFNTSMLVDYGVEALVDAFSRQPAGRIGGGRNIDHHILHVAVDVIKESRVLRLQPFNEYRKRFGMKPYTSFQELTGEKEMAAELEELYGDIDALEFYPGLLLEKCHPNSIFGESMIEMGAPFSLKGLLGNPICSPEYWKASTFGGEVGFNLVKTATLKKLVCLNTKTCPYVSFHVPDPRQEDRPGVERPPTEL
Description: Inhibition of ovine COX1 by enzyme immuno assay

[2] = Effect on nitric oxide release in phosphate buffer at pH 7.4 after 1.5 hrs; format: physicochemical; details: pH 7.4, 1.5 h
[3] = Effect on nitric oxide release in phosphate buffer at pH 7.4 after 1.5 hrs in presence of rat serum; format: ADME; details: pH 7.4, 1.5 h

Row | Compound | ED50 (Rattus norvegicus) | IC50 [1] | Activity [2] | Activity [3]
1 | Cc1ccc(-c2cc(C(F)(F)F)nn2-c2ccc(S(N)(=O)=O)cc2)cc1 [CELECOXIB] | 30.9 µmol/kg | – | – | –
2 | CC(=O)Oc1ccccc1C(=O)O [ASPIRIN] | 710 µmol/kg | – | – | –
3 | CC(C)Cc1ccc(C(C)C(=O)O)cc1 (stereo not drawn) [IBUPROFEN] | 327 µmol/kg | – | – | –
4 | CS(=O)(=O)c1ccc(-n2nc(C(F)(F)F)cc2-c2ccc(CO)cc2)cc1 | 112 µmol/kg | 8.6 µM | – | –
5 | NS(=O)(=O)c1ccc(-n2nc(C(F)(F)F)cc2-c2ccc(CO)cc2)cc1 [PRIMARY ALCOHOL METABOLITE OF CELECOXIB] | 77.1 µmol/kg | – | – | –
6 | CC(=O)OCO/N=[N+](\[O-])N1CCC[C@H]1C(=O)OCc1ccc(-c2cc(C(F)(F)F)nn2-c2ccc(S(C)(=O)=O)cc2)cc1 | 76.7 µmol/kg | – | 6.1% | 77%
7 | CC(=O)OCO/N=[N+](\[O-])N1CCC[C@H]1C(=O)OCc1ccc(-c2cc(C(F)(F)F)nn2-c2ccc(S(N)(=O)=O)cc2)cc1 | 94.3 µmol/kg | > 100 µM | 8.2% | 76%
